Data reported in ChEMBL document CHEMBL1649573, “Protein kinase G is required for intrinsic antibiotic resistance in mycobacteria” (2009).
Values after ≈ are worked out from the molar mass of the structure shown. Active and inactive are the calls of the source. No cut-off for these calls is given here.

Legend:
[1] = system: Mycolicibacterium smegmatis; experiment: Antimycobacterial activity against Mycobacterium smegmatis harboring PknG Msm gene by Etest method; format: functional
[2] = system: Mycolicibacterium smegmatis; experiment: Antimycobacterial activity against Mycobacterium smegmatis MC2 155 by Etest method; format: functional; settings: str. MC2 155
[3] = system: Mycolicibacterium smegmatis; experiment: Antimycobacterial activity against PknGMsm-deficient Mycobacterium smegmatis harboring PknG K181M mutant gene by Etest method; format: functional
[4] = system: Mycolicibacterium smegmatis; experiment: Antimycobacterial activity against Mycobacterium smegmatis MC2 155 harboring PknG K181M mutant gene by Etest method; format: functional; settings: str. MC2 155
[5] = system: Mycolicibacterium smegmatis; experiment: Antimycobacterial activity against PknGMsm-deficient Mycobacterium smegmatis by Etest method; format: functional
[6] = system: Mycolicibacterium smegmatis; experiment: Antimycobacterial activity against Mycobacterium smegmatis MAR4 harboring disrupted PknGMsm gene by Etest method; format: functional
[7] = system: Mycobacterium tuberculosis; experiment: Antimycobacterial activity against PknGMtb-deficient Mycobacterium tuberculosis H37Rv at 100 mg/l after 7 days by microscopy; format: functional, organism-based
[8] = system: Mycobacterium tuberculosis; experiment: Antimycobacterial activity against Mycobacterium tuberculosis H37Rv at 100 mg/l after 7 days by microscopy; format: functional, organism-based

| Compound | MIC [1] [µg/mL] | MIC [2] [µg/mL] | MIC [3] [µg/mL] | MIC [4] [µg/mL] | MIC [5] [µg/mL] | MIC [6] [µg/mL] | Activity [7] | Activity [8] |
| --- | --- | --- | --- | --- | --- | --- | --- | --- |
| C[C@@H](O)[C@H]1C(=O)N2C(C(=O)O)=C(SCCNC=N)C[C@H]12 [IMIPENEM ANHYDROUS] | 6 (≈ 20 µM) | 6 (≈ 20 µM) | 0.38 (≈ 1.27 µM) | 1 (≈ 3.34 µM) | 0.38 (≈ 1.27 µM) | 0.38 (≈ 1.27 µM) | – | – |
| CN[C@H](CC(C)C)C(=O)N[C@H]1C(=O)N[C@@H](CC(N)=O)C(=O)N[C@H]2C(=O)N[C@H]3C(=O)N[C@H](C(=O)N[C@H](C(=O)O)c4cc(O)cc(O)c4-c4cc3ccc4O)[C@H](O)c3ccc(c(Cl)c3)Oc3cc2cc(c3O[C@@H]2O[C@H](CO)[C@@H](O)[C@H](O)[C@H]2O[C@H]2C[C@](C)(N)[C@H](O)[C@H](C)O2)Oc2ccc(cc2Cl)[C@H]1O [VANCOMYCIN] | 48 (≈ 33.1 µM) | 48 (≈ 33.1 µM) | 4 (≈ 2.76 µM) | 16 (≈ 11 µM) | 4 (≈ 2.76 µM) | 4 (≈ 2.76 µM) | – | – |
| CC[C@H]1OC(=O)[C@H](C)[C@@H](O[C@H]2C[C@@](C)(OC)[C@@H](O)[C@H](C)O2)[C@H](C)[C@@H](O[C@@H]2O[C@H](C)C[C@H](N(C)C)[C@H]2O)[C@](C)(O)C[C@@H](C)C(=O)[C@H](C)[C@@H](O)[C@]1(C)O [ERYTHROMYCIN] | 32 (≈ 43.6 µM) | 32 (≈ 43.6 µM) | 3 (≈ 4.09 µM) | 12 (≈ 16.4 µM) | 3 (≈ 4.09 µM) | 4 (≈ 5.45 µM) | Active | inactive |
| CC[C@@H](CO)NCCN[C@@H](CC)CO [ETHAMBUTOL] | 0.25 (≈ 1.22 µM) | 0.25 (≈ 1.22 µM) | – | 0.064 (≈ 0.313 µM) | 0.064 (≈ 0.313 µM) | 0.064 (≈ 0.313 µM) | – | – |
| CO[C@H]1/C=C/O[C@@]2(C)Oc3c(C)c(O)c4c(O)c(c(/C=N/N5CCN(C)CC5)c(O)c4c3C2=O)NC(=O)/C(C)=C\C=C\[C@H](C)[C@H](O)[C@@H](C)[C@@H](O)[C@@H](C)[C@H](OC(C)=O)[C@@H]1C [RIFAMPIN] | > 32 | > 32 | – | 4 (≈ 4.86 µM) | 4 (≈ 4.86 µM) | 4 (≈ 4.86 µM) | – | – |
